# Data as given in patent US3959468A, “Antibiotic equisetin and method of production” (The United States of America as represented by the …, priority 1974, dated 1976).
# Like-named read-outs stand apart in the source and are kept apart here.
# What was measured:
# [1] = in vivo; design: species or system Swiss-Webster female mice; details: mouse, in vivo, ip; intraperitoneal, propylene glycol, 25 g. Swiss-Webster female mice; read-out: intraperitoneal LD50 dose
# Method: (§1) Animal toxicity. Chromatographically pure antibiotic was dissolved in warm propylene glycol and injected intraperitoneally into 25 g. Swiss-Webster female mice. The LD50 dose was calculated by Weil's procedure (supra) with the following notation: K = 3; n = 6; r = 0, 1, 6, 6; d = 0.3010; and Da = 25 mg./kg. body weight.
# [2] = test system: mice; assay: in vivo; design: species or system Swiss-Webster female mice; details: for r (Weil's procedure notation): n = 6, Da = 25 mg./kg.
# Method: as §1
# [3] = test system: some gram-positive bacteria and N. perflava; assay: Comparison of MIC of equisetin with streptomycin and isoniazid; assay type: cell-based; details: in vitro, tested bacteria
# Method: (§2) Minimum inhibitory concentrations for microorganisms. The F. equiseti NRRL 5537 antibiotic was diluted in ethanol. Streptomycin sulfate and isoniazid were diluted in water. Amounts up to 1 ml. were added to TGY agar to provide the desired double dilution test concentrations. Minimum inhibitory concentrations of the antimicrobial agents were determined by streaking a loopful of standardized suspensions of 24- to 48-hr. cultures of selected microorganisms onto the surface of 20 ml. of the modified TGY agar in a standard petri dish. Microorganisms were cultured on TGY agar slants and diluted with TGY broth to yield a transmittance of about 90% at 600 nm. in a Spectronic-20 spectrophotometer. All cultures grew on control plates containing 1 ml. ethanol per 100 ml. TGY agar. Bacteria were incubated at 37° C. and the fungi at room temperature.
# [4] = test system: M. rhodochrus; assay: Minimum inhibitory concentration, agar streak test on TGY agar (M. rhodochrus); assay type: cell-based; details: NRRL B-2141, 37° C., 24 and 48 hr., read-out: Antimicrobial agent MIC
# Method: as §2
# [5] = assay type: physicochemical; details: for degradation peak, share of the sample: short columns (2 ft.)
# Method: Gas-liquid chromatography of F. equiseti NRRL 5537 preparations was carried out on a Bendix Model 2500 chromatograph equipped with on-column flame ionization detectors. Retention times of the antibiotic and its degradation product were determined on glass columns (2 ft. × 2 mm. and 6 ft. × 2 mm.) packed with SE-30 (3%) on Supelcon AW-DMCS (Supelco, Inc.). Operating parameters were: temperature, 180° or 190° C. isothermally for 2-ft. columns and programmed from 180° to 220° C. at 5° C./min. for 6-ft. columns; carrier gas, nitrogen (40 ml./min.); hydrogen (20 ml./min.); air (400 ml./min.); injection ports and detectors, 250° C. Samples were dissolved in absolute ethanol (10 mg./ml.), and 2 μl. were used for analyses. Peak areas and retention times were obtained with a Hewlett/Packard Model 3370 B integrator.
# [6] = test system: Bacillus subtilis; assay: Minimum inhibitory concentration, agar streak test on TGY agar (B. subtilis); assay type: cell-based
# Method: as §2
# [7] = test system: Mycobacterium phlei; assay: Minimum inhibitory concentration, agar streak test on TGY agar (M. phlei); assay type: cell-based; details: Mycolicibacterium phlei
# Method: as §2
# [8] = test system: Neisseria perflava; assay: Minimum inhibitory concentration, agar streak test on TGY agar (N. perflava); assay type: cell-based; details: 37° C., 24 and 48 hr., read-out: Antimicrobial agent MIC
# Method: as §2
# [9] = test system: gram-negative bacteria; assay: Minimum inhibitory concentration, agar streak test on TGY agar (other gram-negative bacteria); assay type: cell-based; details: Neisseria perflava; tested gram-negative bacteria other than N. perflava; read-out: no inhibition at levels up to
# Method: as §2
# [10] = test system: M. smegmatis; assay: Minimum inhibitory concentration, agar streak test on TGY agar (M. smegmatis); assay type: cell-based; details: Mycolicibacterium smegmatis, NRRLB612, NRRL B-612, 37° C., 24 and 48 hr., read-out: Antimicrobial agent MIC
# Method: as §2
# [11] = test system: fungi; assay: Minimum inhibitory concentration, agar streak test on TGY agar (fungi); assay type: cell-based; details: tested fungi; room temperature; read-out: no inhibition at levels up to
# Method: as §2
# [12] = test system: Staphylococcus aureus; assay: Minimum inhibitory concentration, agar streak test on TGY agar (S. aureus); assay type: cell-based
# Method: as §2
# [13] = physchem; assay type: physicochemical
# Method: Melting points (uncorrected) were determined with a Fisher-Johns apparatus. Infrared spectra were obtained on a Beckman Model 1R-8 spectrophotometer from films deposited on KRS-5 plates (Wilks, Inc.) or from solutions in a 1-mm. sodium chloride cell. Mass spectra were obtained on a Nuclide high-resolution instrument Model 12-90G. Ultraviolet spectra were recorded from a Beckman DG-G with the absolute ethanol solutions of antibiotic at 25 μg./ml. Elemental analysis was carried out in a Perkin-Elmer CHN analyzer 240. Solubilities were measured by the procedure of Shriner et al. [The Systematic Identification of Organic Compounds. A Laboratory Manual, John Wiley and Sons., Inc., New York].
# [14] = test system: bacteria; details: cited from earlier work
# [15] = 100 or 200 mg./kg. intraperitoneal
# [16] = seven strains, read-out: concentration at which strains were inhibited
molecule,measurement,setting,value
CC=CC1C=CC2CC(C)CCC2C1(C)C(O)=C1C(=O)C(CO)N(C)C1=O (centres unmarked) [equisetin],LD50,[1],63 mg/kg
same,visible ill effects in surviving mice,"[2]; 25- or 50-mg./kg. doses intraperitoneal, 4 wk. of observation",no visible ill effects
same,condition of mice,[2]; [15],lethargic
same,"mortalities continued for, post-injection",[2]; [15],4 da.
same,time of death,[2]; [15],death did not occur before the second day after treatment
same,r (Weil's procedure notation),"[2]; first r, d = 0.3010 (25 mg./kg.)",0
same,r (Weil's procedure notation),"[2]; fourth r, d = 0.3010 (200 mg./kg.)",6
same,lethal action,"[2]; intraperitoneal, mice",Lethal action was slow
same,r (Weil's procedure notation),"[2]; second r, d = 0.3010 (50 mg./kg.)",1
same,r (Weil's procedure notation),"[2]; third r, d = 0.3010 (100 mg./kg.)",6
same,comparison of minimum inhibitory concentrations with streptomycin and isoniazid,[3],a lower concentration of equisetin were required for the in vitro inhibition of the tested bacteria than was required for inhibition by streptomycin or isoniazid
same,MIC,[4],0.5 µg/mL
same,antibiotic converted to the degradation product,"[5]; 6-ft. columns, 220° C.",almost half
same,"degradation peak, share of the sample",[5]; 180° C.,3%
same,"degradation peak, share of the sample",[5]; 190° C.,6-8%
same,MIC,"[6]; NRRLB543, NRRL B-543, TGY agar, 37° C., 24 and 48 hr., read-out: Antimicrobial agent MIC",0.5 µg/mL
same,MIC,"[6]; NRRLB558, NRRL B-558, TGY agar, 37° C., 24 and 48 hr., read-out: Antimicrobial agent MIC",0.5 µg/mL
same,MIC,"[6]; NRRLB644, NRRL B-644, TGY agar, 37° C., 24 and 48 hr., read-out: Antimicrobial agent MIC",0.5 µg/mL
same,MIC,"[6]; NRRLB765, NRRL B-765, TGY agar, 37° C., 24 and 48 hr., read-out: Antimicrobial agent MIC",0.5 µg/mL
same,MIC,"[6]; NRRLB972, NRRL B-972, TGY agar, 37° C., 24 and 48 hr., read-out: Antimicrobial agent MIC",0.5 µg/mL
same,MIC,"[6]; NRRLB1650, NRRL B-1650, TGY agar, 37° C., 24 and 48 hr., read-out: Antimicrobial agent MIC",1 µg/mL
same,MIC,"[6]; NRRLB3284, NRRL B-3284, TGY agar, 37° C., 24 and 48 hr., read-out: Antimicrobial agent MIC",1 µg/mL
same,MIC,[6]; [16],≤ 1 µg/mL
same,MIC,"[7]; NRRLB609, NRRL B-609, TGY agar, 37° C., 24 and 48 hr., read-out: Antimicrobial agent MIC",1 µg/mL
same,MIC,"[7]; NRRLB610, NRRL B-610, TGY agar, 37° C., 24 and 48 hr., read-out: Antimicrobial agent MIC",1 µg/mL
same,MIC,"[7]; NRRLB4051, NRRL B-4051, TGY agar, 37° C., 24 and 48 hr., read-out: Antimicrobial agent MIC",2 µg/mL
same,MIC,"[7]; two of three strains, read-out: concentration at which strains were inhibited",≤ 1 µg/mL
same,MIC,"[8]; NRRLB1458, NRRL B-1458, TGY agar",2 µg/mL
same,MIC,"[8]; NRRLB1788, NRRL B-1788, TGY agar",2 µg/mL
same,MIC,"[8]; NRRLB1789, NRRL B-1789, TGY agar",4 µg/mL
same,MIC,"[8]; NRRLB1790, NRRL B-1790, TGY agar",1 µg/mL
same,MIC,"[8]; NRRLB1791, NRRL B-1791, TGY agar",4 µg/mL
same,MIC,[9],> 128 µg/mL
same,MIC,[10],8 µg/mL
same,MIC,[11],> 128 µg/mL
same,MIC,"[12]; NRRLB120, NRRL B-120, TGY agar, 37° C., 24 and 48 hr., read-out: Antimicrobial agent MIC",1 µg/mL
same,MIC,"[12]; NRRLB124, NRRL B-124, TGY agar, 37° C., 24 and 48 hr., read-out: Antimicrobial agent MIC",1 µg/mL
same,MIC,"[12]; NRRLB313, NRRL B-313, TGY agar, 37° C., 24 and 48 hr., read-out: Antimicrobial agent MIC",0.5 µg/mL
same,MIC,"[12]; NRRLB678, NRRL B-678, TGY agar, 37° C., 24 and 48 hr., read-out: Antimicrobial agent MIC",1 µg/mL
same,MIC,"[12]; NRRLB1317, NRRL B-1317, TGY agar, 37° C., 24 and 48 hr., read-out: Antimicrobial agent MIC",1 µg/mL
same,MIC,"[12]; NRRLB1318, NRRL B-1318, TGY agar, 37° C., 24 and 48 hr., read-out: Antimicrobial agent MIC",1 µg/mL
same,MIC,"[12]; NRRLB2746, NRRL B-2746, TGY agar, 37° C., 24 and 48 hr., read-out: Antimicrobial agent MIC",1 µg/mL
same,MIC,[12]; [16],≤ 1 µg/mL
same,solubility,"[13]; acetone, organic solvent or mixture, read-out: solubility in acetone",> 660 mg/mL
same,solubility,"[13]; ethanol, organic solvent or mixture, read-out: solubility in ethanol",> 330 mg/mL
same,solubility,"[13]; methanol, organic solvent or mixture, read-out: solubility in methanol",> 220 mg/mL
same,solubility,"[13]; organic solvent or mixture, hexane, insoluble, read-out: solubility in hexane",< 0.8 mg/mL
same,solubility,"[13]; water, insoluble, read-out: solubility in water",< 0.3 mg/mL
C[C@H]1CCCC(=O)CCC/C=C/c2cc(O)cc(O)c2C(=O)O1 [zearalenone],antibacterial properties,[14],either lack or only exhibit weak antibacterial properties
fusariogenin,antibacterial properties,[14],either lack or only exhibit weak antibacterial properties
